# Data reported in US4442044A, “Process for preparing monoesters and diesters of N-alkyl substituted amino methyl phosphonic acid” (priority 1983, dated 1984).
# What was measured:
# Test in all cases: post-emergent herbicidal activity, greenhouse
# Type in all cases: in vivo
# Conditions in all cases: Table I
# [1] = test system: Smartweed
# From the text: (§1) A good grade of top soil is placed in aluminum pans having holes in the bottom and compacted to a depth of 0.95 to 1.27 cm. from the top of the pan. A predetermined number of seeds of each of several dicotyledonous and monocotyledonous annual plant species and/or vegetative propagules for the perennial plant species were placed on the soil and pressed into the soil surface. The seeds and/or vegetative propagules are covered with soil and leveled. The pans are then placed on a sand bench in the greenhouse and watered from below as needed. After the plants reach the desired age (two to three weeks), each pan except for the control pans is removed individually to a spraying chamber and sprayed by means of an atomizer operating at a positive air pressure of approximately 1.46 kg/cm^2 absolute. The atomizer contains 6 ml. of a solution or suspension of the chemical. In that 6 ml., is an amount of a cyclohexanone emulsifying agent mixture to give a spray solution or suspension which contains about 0.4% by weight of the emulsifier. The spray solution or suspension contains a sufficient amount of the candidate chemical in order to give application rates corresponding to those set forth in the tables. The spray solution is prepared by taking an aliquot of a 1.0% by weight stock solution or suspension of the candidate chemical in an organic solvent such as acetone or tetrahydrofuran or in water. The emulsifying agent employed is a mixture comprising 35 weight percent butylamine dodecylbenzene sulfonate and 65 weight percent of a tall oil ethylene oxide condensate having about 11 moles of ethylene oxide per mole of tall oil. The pans are returned to the greenhouse and watered as before and the injury to the plants as compared to the control is observed at approximately two and four weeks as indicated in the tables under WAT and the results recorded. In some instances, the two-week observations are omitted.
# (§2) The post-emergent herbicidal activity index used in Tables I and II is as follows: […]
# [2] = test system: Downy Brome
# From the text: as §1, §2
# [3] = test system: Johnsongrass
# From the text: as §1, §2
# [4] = test system: Yellow Nutsedge
# From the text: as §1, §2
# [5] = test system: Velvetleaf
# From the text: as §1, §2
# [6] = test system: Lambsquarters
# From the text: as §1, §2
# [7] = test system: Barnyardgrass
# From the text: as §1, §2
# [8] = test system: Morningglory
# From the text: as §1, §2
# [9] = test system: Quackgrass
# From the text: as §1, §2
# [10] = test system: Canada Thistle
# From the text: as §1, §2
# [11] = test system: Cocklebur
# From the text: as §1, §2
structure (smiles),measurement,setting,value
"CCOC(=O)CNCP(=O)(OC(CC(=O)OCC)C(=O)OCC)OC(CC(=O)OCC)C(=O)OCC (centres unmarked) [Example 14, butanoic acid, 2,2'-[[[(2-ethoxy-2-oxo-ethyl)amino]methyl]phosphinylidene]bis(oxy)-bis-,tetraethyl ester]",post-emergent herbicidal activity index,"[1]; 2 WAT, 5.6 kg/h",0 (0-24% control)
same,post-emergent herbicidal activity index,"[1]; 2 WAT, 11.2 kg/h",0 (0-24% control)
same,post-emergent herbicidal activity index,"[1]; 2 WAT, 56.0 kg/h",4 (100% control)
same,post-emergent herbicidal activity index,"[1]; 4 WAT, 56.0 kg/h",3 (75-99% control)
same,post-emergent herbicidal activity index,"[2]; 2 WAT, 5.6 kg/h",0 (0-24% control)
same,post-emergent herbicidal activity index,"[2]; 2 WAT, 11.2 kg/h",0 (0-24% control)
same,post-emergent herbicidal activity index,"[2]; 2 WAT, 56.0 kg/h",3 (75-99% control)
same,post-emergent herbicidal activity index,"[2]; 4 WAT, 56.0 kg/h",2 (50-74% control)
same,post-emergent herbicidal activity index,"[3]; 2 WAT, 5.6 kg/h",0 (0-24% control)
same,post-emergent herbicidal activity index,"[3]; 2 WAT, 11.2 kg/h",0 (0-24% control)
same,post-emergent herbicidal activity index,"[3]; 2 WAT, 56.0 kg/h",3 (75-99% control)
same,post-emergent herbicidal activity index,"[3]; 4 WAT, 56.0 kg/h",3 (75-99% control)
same,post-emergent herbicidal activity index,"[4]; 2 WAT, 5.6 kg/h",0 (0-24% control)
same,post-emergent herbicidal activity index,"[4]; 2 WAT, 11.2 kg/h",0 (0-24% control)
same,post-emergent herbicidal activity index,"[4]; 2 WAT, 56.0 kg/h",4 (100% control)
same,post-emergent herbicidal activity index,"[4]; 4 WAT, 56.0 kg/h",1 (25-49% control)
same,post-emergent herbicidal activity index,"[5]; 2 WAT, 5.6 kg/h",0 (0-24% control)
same,post-emergent herbicidal activity index,"[5]; 2 WAT, 11.2 kg/h",0 (0-24% control)
same,post-emergent herbicidal activity index,"[5]; 2 WAT, 56.0 kg/h",4 (100% control)
same,post-emergent herbicidal activity index,"[5]; 4 WAT, 56.0 kg/h",3 (75-99% control)
same,post-emergent herbicidal activity index,"[6]; 2 WAT, 5.6 kg/h",0 (0-24% control)
same,post-emergent herbicidal activity index,"[6]; 2 WAT, 11.2 kg/h",0 (0-24% control)
same,post-emergent herbicidal activity index,"[6]; 2 WAT, 56.0 kg/h",4 (100% control)
same,post-emergent herbicidal activity index,"[6]; 4 WAT, 56.0 kg/h",4 (100% control)
same,post-emergent herbicidal activity index,"[7]; 2 WAT, 5.6 kg/h",0 (0-24% control)
same,post-emergent herbicidal activity index,"[7]; 2 WAT, 11.2 kg/h",0 (0-24% control)
same,post-emergent herbicidal activity index,"[7]; 2 WAT, 56.0 kg/h",4 (100% control)
same,post-emergent herbicidal activity index,"[7]; 4 WAT, 56.0 kg/h",3 (75-99% control)
same,post-emergent herbicidal activity index,"[8]; 2 WAT, 5.6 kg/h",0 (0-24% control)
same,post-emergent herbicidal activity index,"[8]; 2 WAT, 11.2 kg/h",0 (0-24% control)
same,post-emergent herbicidal activity index,"[8]; 2 WAT, 56.0 kg/h",3 (75-99% control)
same,post-emergent herbicidal activity index,"[8]; 4 WAT, 56.0 kg/h",2 (50-74% control)
same,post-emergent herbicidal activity index,"[9]; 2 WAT, 5.6 kg/h",0 (0-24% control)
same,post-emergent herbicidal activity index,"[9]; 2 WAT, 11.2 kg/h",0 (0-24% control)
same,post-emergent herbicidal activity index,"[9]; 2 WAT, 56.0 kg/h",4 (100% control)
same,post-emergent herbicidal activity index,"[9]; 4 WAT, 56.0 kg/h",3 (75-99% control)
same,post-emergent herbicidal activity index,"[10]; 2 WAT, 5.6 kg/h",0 (0-24% control)
same,post-emergent herbicidal activity index,"[10]; 2 WAT, 11.2 kg/h",0 (0-24% control)
same,post-emergent herbicidal activity index,"[10]; 2 WAT, 56.0 kg/h",4 (100% control)
same,post-emergent herbicidal activity index,"[10]; 4 WAT, 56.0 kg/h",1 (25-49% control)
same,post-emergent herbicidal activity index,"[11]; 2 WAT, 5.6 kg/h",0 (0-24% control)
same,post-emergent herbicidal activity index,"[11]; 2 WAT, 11.2 kg/h",0 (0-24% control)
same,post-emergent herbicidal activity index,"[11]; 2 WAT, 56.0 kg/h",4 (100% control)
same,post-emergent herbicidal activity index,"[11]; 4 WAT, 56.0 kg/h",4 (100% control)
